Measured values: patent US20130219529A1, “PROBE FOR A HAIR CELL, AND LABELLING METHOD FOR A HAIR CELL USING THE PROBE FOR A HAIR CELL” (CANON KABUSHIKI KAISHA, priority 2008, published 2013)

Experiments:
[1] = Excitation and fluorescence emission wavelength measured with fluorescence spectrophotometer; type: physicochemical; conditions: aqueous solution, 10 mg/mL DMSO solution diluted 500-fold with purified water
[2] = tested on: hair cell (neuromast) of Zebrafish; assay: Staining of hair cell (neuromast) of Zebrafish juveniles with probe, fluorescence stereomicroscope image visually evaluated; type: in vivo; design: Fluorescence intensity: key to the marks not given beside the values; conditions: dye concentration 1 μg/mL; for Fluorescence intensity / Staining pattern: 1 hour, Zebrafish juveniles Day 7 after fertilization; for Pattern of the neuromast stained (FIGS. 1 to 3): Zebrafish juveniles, in words
Protocol: A staining compound (1) was dissolved in DMSO to prepare a stock solution at a concentration of 1 mg/mL. The stock solution was diluted with distilled water to prepare a hair cell staining solution 1 having a dye concentration of 1 μg/mL. Further, Egg Water was prepared by dissolving artificial seawater SEALIFE (manufactured by Marinetech Co., Ltd.) in distilled water at a concentration of 60 mg/L. Five juveniles (embryos on Day 7 after fertilization) of Zebrafish were placed into any one of wells of a 24-well multiwell plate together with feeding water. The feeding water was discharged and 1 mL of the hair cell staining solution 1 was added. After the whole had been left to stand for 1 hour, the hair cell staining solution 1 in the well was discharged and replaced by 1 mL of fresh Egg Water. In addition, such an operation that Egg Water was discharged and replaced by 1 mL of fresh Egg Water was repeated twice. One of the juveniles was taken out from the well onto a dish, the motion of the juvenile was restricted by addition of methylcellulose, and a fluorescence image was captured with a fluorescence stereomicroscope. MZ16FA manufactured by Leica Microsystems K.K. was used as a stereoscopic microscope.
An image pickup unit (a digital camera DP72 for a microscope manufactured by Olympus Corporation) of a fluorescence stereomicroscope was remodeled by removing an IR cut filter so as to capture a fluorescence image in a near-infrared wavelength region.

Structure (SMILES) | Excitation wavelength λex [1] [nm] | Fluorescence emission wavelength λem [1] [nm] | Fluorescence intensity [2] | Staining pattern [2] | Pattern of the neuromast stained (FIGS. 1 to 3) [2]
CN1\C(=C/C=C/C=C/C2=[N+](C)c3ccc4ccccc4c3C2(C)C)C(C)(C)c2c1ccc1ccccc21 [compound 69] | 670 | 700 | +++ | – | –
O=S(=O)(O)CCN1/C(=C\C=C\c2oc3ccc(-c4ccccc4)cc3[n+]2CCS(=O)(=O)O)Oc2ccc(-c3ccccc3)cc21 [compound 25] | 470 | 558 | +++ | S | –
O=S(=O)(O)CCN1/C(=C\C=C\c2oc3ccc(-c4ccccc4)cc3[n+]2CCS(=O)(=O)O)Oc2ccc(-c3ccccc3)cc21 [Staining compound 25] | – | – | – | – | a portion with a smaller neuromast is selectively stained
CCN1C=C/C(=C/C=C/c2oc3ccccc3[n+]2CC)c2ccccc21 [Staining compound 50] | – | – | – | – | a portion with a bigger neuromast is selectively stained
CCCCNS(=O)(=O)c1ccc(-c2c3ccc(=[N+](CC)CC)cc-3oc3cc(N(CC)CC)ccc23)c(S(=O)(=O)O)c1.[Na+] [compound 57] | 570 | 589 | +++ | – | –
COc1ccc(N2c3ccc(/C=C/C4=[N+](C)c5ccccc5C4(C)C)cc3C3CCCC32)cc1 (stereo not drawn) [compound 53] | 614 | 669 | +++ | – | –
CC1(C)C(/C=C/c2ccc3c(c2)C2CCCC2N3c2ccc(C=C(c3ccccc3)c3ccccc3)cc2)=[N+](CCC(=O)O)c2ccccc21 (stereo not drawn) [compound 51] | 611 | 720 | +++ | S | –
COc1ccc(N2c3ccc(/C=C/C4=[N+](C)c5ccccc5C4(C)C)cc3C3CCCC32)cc1 (stereo not drawn) [Staining compound 53] | – | – | – | – | both a portion with a bigger neuromast and a portion with a smaller neuromast are simultaneously stained

More lines, main results first:

Excitation wavelength λex [1] [nm] | Fluorescence emission wavelength λem [1] [nm] | Structure (SMILES) | Fluorescence intensity [2] | Staining pattern [2] | Pattern of the neuromast stained (FIGS. 1 to 3) [2]
459 | 564 | CCC(=C\c1oc2ccc(-c3ccccc3)cc2[n+]1CC)/C=C1/Oc2ccc(-c3ccccc3)cc2N1CC [compound 16] | +++ | S | –
730 | 760 | CN1/C(=C/C=C/C=C/C=C/C2=[N+](C)c3ccccc3C2(C)C)C(C)(C)c2ccccc21 [compound 68] | +++ | – | –
750 | 780 | CCN1/C(=C/C=C/C=C/C=C/C2=[N+](CC)c3ccccc3C23CCCCC3)C2(CCCCC2)c2ccccc21 [compound 67] | +++ | – | –
401 | 516 | COc1ccc2cc(N3c4ccc(/C=C/c5sc6ccccc6[n+]5CC(=O)O)cc4C4CCCC43)ccc2c1 (stereo not drawn) [compound 4] | +++ | – | –
545 | 636 | O=C(O)C[n+]1c(/C=C/c2ccc3c(c2)C2CCCC2N3c2ccccc2)sc2ccccc21 (stereo not drawn) [compound 6] | +++ | – | –
660 | 690 | CCN1C=C/C(=C\C=c2\s/c(=C/c3sc4ccccc4[n+]3CC)n(CC)c2=O)c2ccccc21 [compound 70] | +++ | – | –
563 | 569 | CCC(=C\c1sc2ccccc2[n+]1CC)/C=C1/Sc2ccccc2N1CC [compound 39] | +++ | – | –
344 | 381 | CCC(=C\c1sc2c3ccccc3ccc2[n+]1CC)/C=C1/Sc2c(ccc3ccccc23)N1CC [compound 40] | +++ | – | –
354 | 469 | CCN1/C(=C\C(C)=C\c2sc3c4ccccc4ccc3[n+]2CC)Sc2c1ccc1ccccc21 [compound 47] | +++ | – | –
